In one series the test system is RS4;11 cells. The series can be described thus: RS4;11 cell viability (CCK-8) assay. It is filed as cell-based, human. As to conditions: 4 days, read-out: RS4;11 IC50 (Bcl-2 dependent). Here is the method: RS4;11 cells were obtained from American Type Culture Collection (ATCC). They were used within three months of thawing fresh vials. Cells were maintained in the recommended culture medium with 10% FBS at 37° C. and an atmosphere of 5% CO2.
The effect of representative Compounds of the Disclosure on cell viability was determined using Cell Counting Kit-8 (CCK-8) assay (Dojindo, Rockville, Md.) according to the manufacturer's instructions. 200 μL of a RS4;11 cell suspension (10000 cells/well) in culture medium were seeded into 96-well plates and cultured overnight. Each tested compound was serially diluted in culture medium, and 20 μL of the compound dilution was added to the corresponding well of the cell plate. After the addition of the tested compound, the cells were incubated at 37° C. in an atmosphere of 5% CO2 for 4 days. At the end of 4 days, 10 μL of CCK-8 solution was added to each well of the plate and incubated for 1-4 hours. The plates were read at 450 nm on the microplate spectrophotometer (Epoch2, BioTek). The readings were normalized to the vehicle cells, and the IC50 was calculated by nonlinear regression analysis using GraphPad Prism 5 software.

The test system of series [1] is RS4;11 leukemia xenograft. The series can be described thus: RS4;11 leukemia xenograft model. Type of series: in vivo. Particulars: oral gavage, nude mice. On the procedure: The antitumor activity of Cpd. No. 6 (compound 6) was also studied in the RS4;11 leukemia xenograft model. Human RS4;11 tumor cells were injected into nude mice and treatment started on day 11 when the tumor size reached approximately 100 mm^3. Cpd. No. 6 was administered via oral gavage at indicated doses and schedules. Cpd.

In the next series the target is Bcl-xL (Homo sapiens (Human), UniProt Q07817). Briefly: Fluorescence polarization competitive binding assay, Bcl-xL. Particulars: FP competition with Flu-BAK probe; read-out: Inhibitory activity IC50 Bcl-xL. On the technique in general: Polarisation of emitted light reports the rotation of a fluorescent probe.
Bcl-xL, sequence (Q07817 whole entry): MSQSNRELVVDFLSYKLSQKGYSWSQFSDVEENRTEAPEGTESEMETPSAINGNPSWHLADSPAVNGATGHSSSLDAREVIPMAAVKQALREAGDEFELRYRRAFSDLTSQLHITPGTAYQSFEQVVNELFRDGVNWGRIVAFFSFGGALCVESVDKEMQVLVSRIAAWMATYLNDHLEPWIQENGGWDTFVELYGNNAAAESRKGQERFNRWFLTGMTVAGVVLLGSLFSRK
A further series concerns the target Bcl-2 (Homo sapiens (Human), UniProt P10415). Briefly: Fluorescence polarization competitive binding assay, Bcl-2. As to conditions: FP competition with Flu-BIM probe; read-out: Inhibitory activity IC50 Bcl-2.
The next series deals with Mcl-1 (Homo sapiens (Human), UniProt Q07820). The series can be described thus: Fluorescence polarization competitive binding assay, Mcl-1. As to conditions: FP competition with Flu-BID probe; read-out: Inhibitory activity IC50 Mcl-1.
Mcl-1, sequence (Q07820 whole entry): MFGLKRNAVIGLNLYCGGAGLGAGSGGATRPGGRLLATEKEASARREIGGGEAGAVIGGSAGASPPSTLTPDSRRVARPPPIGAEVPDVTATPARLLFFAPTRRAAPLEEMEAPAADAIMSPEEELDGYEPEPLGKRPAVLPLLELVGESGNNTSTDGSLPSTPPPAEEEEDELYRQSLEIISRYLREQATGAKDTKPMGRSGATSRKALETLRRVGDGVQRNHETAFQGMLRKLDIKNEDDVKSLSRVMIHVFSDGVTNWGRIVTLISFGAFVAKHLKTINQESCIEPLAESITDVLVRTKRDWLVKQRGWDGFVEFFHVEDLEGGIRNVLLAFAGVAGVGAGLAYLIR

Where two headings read alike, the source gives them in different places.

Bcl-2, sequence (P10415 whole entry): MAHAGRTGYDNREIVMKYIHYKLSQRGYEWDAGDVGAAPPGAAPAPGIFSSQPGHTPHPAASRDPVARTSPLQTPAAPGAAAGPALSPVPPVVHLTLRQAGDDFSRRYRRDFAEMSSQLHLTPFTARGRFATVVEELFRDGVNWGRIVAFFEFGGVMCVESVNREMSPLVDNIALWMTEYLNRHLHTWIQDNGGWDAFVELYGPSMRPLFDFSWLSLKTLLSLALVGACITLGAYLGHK
Experimental for Bcl-2: (§1) Fluorescence polarization values were measured using the Infinite M-1000 plate reader (Tecan U.S., Research Triangle Park, N.C.) in Microfluor 1 96-well, black, round-bottom plates (Thermo Scientific). […] Plates were mixed and incubated at room temperature for 1 hour with gentle shaking to assure equilibrium. […] Equilibrium dissociation constants (Kd) were then calculated by fitting the sigmoidal dose-dependent FP increases as a function of protein concentrations using Graphpad Prism 5.0 software (Graphpad Software, San Diego, Calif.).
(§2) Mixtures of 5 μl of the tested inhibitors in DMSO and 120 μl of pre-incubated protein/probe complexes in the assay buffer were added into assay plates and incubated at room temperature for 2 hours with gentle shaking. […] FP values were measured as described above. IC50 values were determined by nonlinear regression fitting of the competition curves.
Experimental for Bcl-xL: as §1, §2
Experimental for Mcl-1: as §1, §2

As to “2-((1H-pyrrolo[2,3-b]pyridin-5-yl)oxy)-4-(1-((6- (4-chlorophenyl)-2-oxaspiro[3.5]non-6-en-7- yl)methyl)-1,2,3,6-tetrahydropyridin-4-yl)-N-((3- nitro-4-(((tetrahydro-2H-pyran-4- yl)methyl)amino)phenyl)sulfonyl)benzamide [compound 9]”, the IC50 in the series with RS4;11 cells turned out to be 28 nM. With `O=C(NS(=O)(=O)c1ccc(NC[C@H]2COCCO2)c([N+](=O)[O-])c1)c1ccc(N2CCN(CC3=C(c4ccc(Cl)cc4)CC4(CCC4)CC3)CC2)cc1Oc1cnc2[nH]ccc2c1` [Cpd. No. 6, (S)-N-((4-(((1,4-dioxan-2-yl)methyl)amino)-3-nitrophenyl)sulfonyl)-2-((1H-pyrrolo[2,3-b]pyridin-5-yl)oxy)-4-(4-((6-(4-chlorophenyl)spiro[3.5]non-6-en-7-yl)methyl)piperazin-1-yl)benzamide], the “antitumor activity (tumor growth)” value in series [1] (FIG. 3) was “inhibits tumor growth”. In addition, the mouse weight result in series [1] (FIG. 4) is listed as “does not cause weight loss in mice”. As for `O=C(NS(=O)(=O)C1=CC2C(C=NN2CC2CCOCC2)C([N+](=O)[O-])=C1)c1ccc(N2CCN(CC3=C(c4ccc(Cl)cc4)CC4(CCC4)CC3)CC2)cc1Oc1cnc2[nH]ccc2c1` (stereo not drawn) [compound 62, 2-((1H-pyrrolo[2,3-b]pyridin-5-yl)oxy)-4-(4-((6-(4-chlorophenyl)spiro[3.5]non-6-en-7-yl)methyl)piperazin-1-yl)-N-((4-nitro-1-((tetrahydro-2H-pyran-4-yl)methyl)-3a,7a-dihydro-1H-indazol-6-yl)sulfonyl)benzamide], the IC50 amounted to 4 nM at Bcl-xL; 46 nM in the series on RS4;11 cells (Homo sapiens, RS4-11, 96 h); 1.6 nM on Bcl-2. In the case of “(R)-N-((4-(((1,4-dioxan-2-yl)methyl)amino)-3- nitrophenyl)sulfonyl)-2-((1H-pyrrolo[2,3- b]pyridin-5-yl)oxy)-4-(1-((6-(4-chlorophenyl)-2- oxaspiro[3.5]non-6-en-7-yl)methyl)-1,2,3,6- tetrahydropyridin-4-yl)benzamide [Cpd. No. 5]”, in the series with RS4;11 cells, the IC50 was found to be 22 nM.

Consider “(R)-N-((4-(((1,4-dioxan-2-yl)methyl)amino)-3- nitrophenyl)sulfonyl)-2-((1H-pyrrolo[2,3- b]pyridin-5-yl)oxy)-4-(4-((6-(4-chlorophenyl)-2- oxaspiro[3.5]non-6-en-7-yl)methyl)piperazin-1- yl)benzamide [compound 8]”, for which the IC50 with RS4;11 cells is 3.7 nM; on Mcl-1 it was more than 5000 nM.

The record behind these values is patent US11718613B2, “N-(phenylsulfonyl)benzamides and related compounds as Bcl-2 inhibitors” (THE REGENTS OF THE UNIVERSITY OF MICHIGAN, priority 2016, dated 2023).
